# Assay results taken from patent US20180094248A1, “Necroptosis Signaling as a Therapeutic Target for Alzheimer's Disease” (Arizona Board of Regents on behalf of Arizona State …, priority 2016, published 2018).
# Legend:
# [1] = test system: primary cortical neurons isolated from APP/PS1 and wild type mice; assay: GFP fluorescence in live AAV-GFP infected primary cortical neurons treated with Nec1S or vehicle; type: cell-based, mouse; details: DIV 15; 10 μM at DIV 7 and 11; APP/PS1-veh vs the other three groups incl. APP/PS1-Nec1S
# Protocol: At DIV 1, we infected primary cortical neurons isolated from APP/PS1 and wild type mice with an adeno-associated virus (AAV) expressing the green fluorescent protein (GFP) under the neuronal promotor CamKII. At DIV 7 and 11, neurons from the two genotypes were treated with 10 μM Nec1S or vehicle. We then measured GFP fluorescence in live cells as an indication of live neurons.
# (§1) Primary neuronal cultures—For the GFP experiments: Primary neurons were isolated from APP/PS1 and NonTg Po pups. The tissue was then dissociated in Neurobasal media (Thermo Fisher Scientific) and spun down for 3 minutes at 5,000 g at 4° C. The supernatant was discarded and the pellet was re-suspended in 1 ml of Neurobasal media supplemented with B27 (Thermo Fisher Scientific). An equal volume per each sample was seeded into a Poly-D-Lysine-coated (10 mg/mL, Sigma-Aldrich) black 96-well tissue culture plate. […] Neurons were treated for a total of 15 days and the GFP fluorescence was measured every 4 days. […] All fluorescent measurements (excitation 488 nm, emission 509 nm) were performed using the Synergy HT multi-mode microplate reader with the Gen5 software (BioTek, Winooski, Vt.). The reader was pre-heated to 37° C. to maintain optimal conditions for the neurons during the measurements. […]
# [2] = test system: primary cortical neurons from wild type littermate mice; assay: NeuN count of wild type primary cortical neurons treated with Nec-1S or vehicle; type: cell-based, mouse; details: 10 μM at DIV 7 and DIV 11
# Protocol: To probe for a direct link between necroptosis and neuronal loss in AD, we plated primary cortical neurons from APP/PS1 and wild type littermate mice. After seven days in vitro (DIV), neurons were treated with 10 μM of the necroptosis inhibitor 7-Cl-O-necrostatin (Nec15) or vehicle. Treatment was repeated at DIV 11. We then fixed neurons at DIV 11 and 15, and stained them for NeuN to count total number of neurons. […] To determine changes in necroptosis, we isolated proteins from neurons of the same four groups and measured the levels of total and phosphorylated MLKL by western blot.
# as §1, with “Scientific).” for “Scientific). An equal volume per each sample was seeded into a Poly-D-Lysine-coated (10 mg/mL, Sigma-Aldrich) black 96-well tissue culture plate.”
# [3] = test system: phosphorylated MLKL; assay: Western blot of total and phosphorylated MLKL in brains of Nec-1S treated 5xFAD mice; type: in vivo, mouse; details: 8-month-old 5xFAD mice; 10 mg/kg i.p. once, then 0.5 mg/ml in drinking water for 21 days; vs vehicle
# Protocol: Specifically, mice receive a single intraperitoneal injection of 10 mg/kg Nec1s after which they were given Nec1S in their drinking water at a concentration of 0.5 mg/ml for 21 days.
# Protein Extraction: Human temporal gyms tissue samples (0.1 g/sample) were extracted in sequential buffers, from lower to higher detergent strength. Briefly, the samples were homogenized in TBS (50 mM Tris-HCl, pH 7.4, 175 mM NaCl, 5 mM EDTA, 1 mM N-ethyl-maleimide) containing protease inhibitors (Roche) and phosphatase inhibitors (Millipore). The protein extract was centrifuged at 120,000 g for 30 minutes at 4° C. The resulting supernatant represented the TBS soluble fraction. Pellets were homogenized in TBS/1% Triton X-100 and spun at 1000 g for 10 minutes at 4° C. The supernatant represented the Triton soluble fraction. Pellets were washed in TBS/1M sucrose and then homogenized in RIPA buffer. […]
# Western blot and ELISA: The proteins were run using reducing conditions in precast gels (Thermo Fisher Scientific) and transferred to nitrocellulose membranes (iBlot, Thermo Fisher Scientific). […] The blots were then washed with TBS-T, and imaged/quantified using a LICOR Odyssey CLx (LI-COR Biosciences) attached to a Dell computer (OptiPlex 7010) running Windows 7 and Image Studio (version 1.0.11, LI-COR Biosciences). […]
smiles,measurement,setting,value
"CN1C(=O)NC(Cc2c[nH]c3c(Cl)cccc23)C1=O (stereo not drawn) [Nec1S, 5-((7-chloro-1 H-indol-3-yl)methyl)-3-methylimidazolidine-2,4-dione]",GFP fluorescence in live cells (indication of live neurons),[1],APP/PS1-veh group had lower GFP levels compared to the other three groups
same,decrease in the number of wild type neurons,[2],did not significantly affect the decrease in the number of wild type neurons
same,pMLKL/MLKL ratio,[3],lower pMLKL/MLKL ratio
